The structures appear in SMILES notation. pKi: −log10 of the molar value. Structures can show the parent of a compound that is named as a salt. Some results are limits rather than exact numbers.

The target of the assay is T1, MASP-2 (CCP1-CCP2-SP) (Homo sapiens, UniProt O00187).
T1 construct: 15 μL of Enzyme MASP-2 (CCP1-CCP2-SP) in Assay Buffer
T1 sequence (O00187 445-686 limits assumed): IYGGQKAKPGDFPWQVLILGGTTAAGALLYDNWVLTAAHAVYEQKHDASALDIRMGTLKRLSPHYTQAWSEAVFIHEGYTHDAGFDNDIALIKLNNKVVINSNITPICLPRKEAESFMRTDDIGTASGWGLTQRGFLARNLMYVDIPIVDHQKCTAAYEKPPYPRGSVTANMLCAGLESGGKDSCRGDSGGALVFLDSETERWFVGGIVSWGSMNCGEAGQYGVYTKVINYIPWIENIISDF
T1 sequence (O00187 298-444 partner limits assumed): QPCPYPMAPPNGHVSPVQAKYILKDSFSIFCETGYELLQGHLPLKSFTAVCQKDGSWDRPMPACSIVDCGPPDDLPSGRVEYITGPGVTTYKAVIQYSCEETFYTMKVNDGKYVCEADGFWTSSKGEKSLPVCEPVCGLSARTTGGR
As to the kind of experiment: Enzymatic Assay for MASP-2 (fluorogenic substrate). Particulars: fluorogenic substrate based on C2 cleavage site; room temperature, 20 min; 20 mM HEPES pH 7.4, 140 mM NaCl, 0.1% Tween 20. It counts as biochemical. How it is done:
The MASP-2 assay utilizes a fluorogenic substrate, based on the cleavage site for its natural substrate C2. The assay is run at room temperature in an assay buffer containing 20 mM HEPES, pH 7.4, 140 mM NaCl and 0.1% Tween 20. Assay parameters are adjusted such that the assay is linear with respect to time, enzyme, and substrate concentrations. Under these optimized assays conditions, IC50 values are equivalent to Ki values, except in a few cases of “tight binding” inhibitors. Cases of “tight binding” or possible “slow binding” inhibitors are handled by the methods described in Copeland R. A. (2013) Evaluation of Enzyme Inhibitors in Drug Discovery. 2nd Ed., John Wiley and Sons, Inc., Chapters 5-7.
The MASP-2 assay protocol is carried out as follows. Test compounds are serially diluted in DMSO and then 100 nL of each dilution is transferred to the assay plate(s). 10 μL of Assay Buffer is added, followed by 15 μL of Enzyme MASP-2 (CCP1-CCP2-SP) in Assay Buffer. 15 μL of Substrate in Assay Buffer is then added and mixed to start the reactions. After 20 min at room temperature, 15 μL of a stop solution (0.1 M acetic acid) is added, mixed and the plates are read on a SpectraMax i3x Microplate Reader and exported as Excel files. Each assay plate included a “no inhibitor” (DMSO Only) control, a “no enzyme” control and a reference inhibitor control. % Activity values=100*(average test comp. fluorescence−average “no enzyme” fluorescence)/(average “DMSO only” fluorescence−average “no enzyme” fluorescence). IC50 and Ki values are very reproducible, falling well within ±2-fold.
For `C[C@H](NC(=O)[C@H]1C[C@@H](c2ccccc2)CCN1CCC(=O)O)C(=O)NCc1cc2cnccc2[nH]1` [Compound I-107, 3-((2R,4S)-2-(((S)-1-(((1H-pyrrolo[3,2-c]pyridin-2-yl)methyl)amino)-1-oxopropan-2-yl)carbamoyl)-4-phenylpiperidin-1-yl)propanoic acid di-trifluoroacetate salt], the pKi was more than 6.30.

Compound `Cc1nc(N)ccc1CNC(=O)[C@@H]1COCCN1C(=O)[C@H]1C[C@H](Cc2ccccc2)CN1` [Compound I-12, (S)—N-((6-Amino-2-Methylpyridin-3-Yl)Methyl)-4-((2R,4S)-4-Benzylpyrrolidine-2-Carbonyl)Morpholine-3-Carboxamide Di-Trifluoroacetate] gave a pKi of 5.60 to 6.30.

The compound `Cc1cccc([C@@H]2CN[C@@H](C(=O)N[C@@H](C)C(=O)NCc3ccc(C(=N)N)cc3)C2)c1` [Compound I-13, (2R,4R)—N—((S)-1-((4-Carbamimidoylbenzyl)Amino)-1-Oxopropan-2-Yl)-4-(M-Tolyl)Pyrrolidine-2-Carboxamide] had a pKi of more than 6.30.

`Cc1nc(N)ccc1CNC(=O)[C@H](C)NC(=O)[C@H]1C[C@H](Cc2cc(Cl)c(Cl)s2)CN1` [Compound I-18, (2R,4R)—N—((S)-1-(((6-Amino-2-Methylpyridin-3-Yl)Methyl)Amino)-1-Oxopropan-2-Yl)-4-((4,5-Dichlorothiophen-2-Yl)Methyl)Pyrrolidine-2-Carboxamide Di-Trifluoroacetate] gave a pKi of more than 6.30.

Turning to `C[C@H](NC(=O)[C@H]1C[C@@H](c2ccc(F)cc2)CCN1)C(=O)NCc1ccc(C(=N)N)cc1` [Compound I-67], the pKi was more than 6.30.

`Cc1nc(N)ccc1CNC(=O)[C@@H]1CCN1C(=O)[C@H]1C[C@H](c2cccc(-c3ccccc3)c2)CN1` [Compound I-64, (S)-1-((2R,4R)-4-([1,1′-Biphenyl]-3-Yl)Pyrrolidine-2-Carbonyl)-N-((6-Amino-2-Methylpyridin-3-Yl)Methyl)Azetidine-2-Carboxamide Di-Trifluoroacetate] gave a pKi of more than 6.30.

With `COC(=O)c1cccc(C[C@@H]2CN[C@@H](C(=O)N[C@@H](C)C(=O)NCc3ccc(N)nc3C)C2)c1` [Compound I-47, Methyl 3-(((3S,5R)-5-(((S)-1-(((6-Amino-2-Methylpyridin-3-Yl)Methyl)Amino)-1-Oxopropan-2-Yl)Carbamoyl)Pyrrolidin-3-Yl)Methyl)Benzoate Dihydrochloride], the pKi is more than 6.30.

In the case of `Cc1nc(N)ccc1CNC(=O)[C@@H]1CCN1C(=O)[C@H]1C[C@@H](c2cccc(-c3ccccc3)c2)CCN1` [Compound I-65, (S)-1-((2R,4S)-4-([1,1′-Biphenyl]-3-Yl)Piperidine-2-Carbonyl)-N-((6-Amino-2-Methylpyridin-3-Yl)Methyl)Azetidine-2-Carboxamide Di-Trifluoroacetate], the pKi is more than 6.30.

Turning to `Cc1nc(N)ccc1CNC(=O)[C@H](C)NC(=O)[C@H]1C[C@H](Cc2ccc(C(F)(F)F)s2)CN1` [Compound I-89, (2R,4R)—N—((S)-1-(((6-Amino-2-Methylpyridin-3-Yl)Methyl)Amino)-1-Oxopropan-2-Yl)-4-((5-(Trifluoromethyl)Thiophen-2-Yl)Methyl)Pyrrolidine-2-Carboxamide Dihydrochloride], the pKi was more than 6.30.

In turn, `C[C@H](NC(=O)[C@H]1C[C@H](c2ccccc2)CN1)C(=O)NCc1cc2ncccc2[nH]1` [Compound I-6, (2R,4R)—N—((S)-1-(((1H-Pyrrolo[3,2-b]pyridin-2-yl)methyl)amino)-1-oxopropan-2-yl)-4-phenylpyrrolidine-2-carboxamide di-trifluoroacetate] gave a negative-log Ki (pKi) of 5.60 to 6.30.

Take `C[C@H](NC(=O)[C@H]1C[C@H](Cc2ccccc2)CN1)C(=O)NCc1ccc2ncc(Cl)n2c1` [Compound I-60, (2R,4S)-4-Benzyl-N—((S)-1-(((3-Chloroimidazo[1,2-A]Pyridin-6-Yl)Methyl)Amino)-1-Oxopropan-2-Yl)Pyrrolidine-2-Carboxamide Trifluoroacetate]: the pKi is less than 5.00.

Values taken from patent US12486278B2, “MASP-2 inhibitors and methods of use” (Omeros Corporation, priority 2019, dated 2025).
